We go through 42 compounds from PubChem BioAssay AID1996.

≈ marks a conversion by molar mass, not a printed value.

For this data set the following is noted: buffer; pH 7.4; 200.0 µM.
Broadly, the solubility (kinetic) is solubility judged after dilution from a stock solution rather than from solid. As for `Nc1cccnc1Oc1ccc(F)cc1`, the kinetic solubility was found to be 28.8 µg/mL (≈ 141 µM).
For `COc1ccc(NC(=O)C2CC(c3ccccc3Cl)=NO2)cc1` (configuration not stated) the value was 37.6 µg/mL (≈ 114 µM); for `O=C(/C=C/c1c(Cl)nc2ccccn12)Nc1ccc(F)cc1`, 4.6 µg/mL (≈ 14.6 µM).
For `COCC(C)NCc1cccc2ccccc12.O=C(O)C(=O)O` (configuration not stated) the value was above 47.9 µg/mL; for `CC(NC(=O)c1ccco1)c1ccc2c(c1)OCO2` (configuration not stated), above 38.9 µg/mL; for `CCOC(=O)C(=O)N1CCC(C(=O)OCC)CC1`, above 38.6 µg/mL.
For `CC(C)N1CCN(Cc2nc3c(s2)CCCC3)CC1CCO` (configuration not stated) the value was 41.4 µg/mL (≈ 128 µM); for `N#Cc1c(-c2cccc([N+](=O)[O-])c2)nc2n(c1=O)CCS2`, above 45 µg/mL; for `COc1ccc(CC(=O)OCC(=O)Nc2cccc(Cl)c2)cc1`, 34 µg/mL (≈ 102 µM).
In turn, `Cn1c(=O)n(C)c2cc(S(=O)(=O)NCC(=O)O)ccc21` registered a kinetic solubility above 44.9 µg/mL.
Then `COc1ccc(C(=O)OCC(=O)NC(=O)NC(C)C)cc1OC`, with above 48.6 µg/mL.
Then `COc1cccc(N2CN(C3CCCCC3)CNC2=S)c1`, with above 45.8 µg/mL; and `Cc1cc(C)c(/C=C(\C#N)S(=O)(=O)c2ccccc2)[nH]1`, with 0.5 µg/mL (≈ 1.75 µM); and `O=C(O)Cc1ccc(-n2cccc2)cc1`, with above 30.2 µg/mL.
For `CCOc1ccc(/C=C2\SC(=S)N(C)C2=O)cc1OC` the value was below 0.7 µg/mL; for `COc1ccc(OC(=O)N2CCOCC2)cc1`, above 35.6 µg/mL; for `O=C(COC(=O)c1cc[n+]([O-])cc1)Nc1cccc(F)c1`, above 43.5 µg/mL.
Take `C=CCSc1nc(N)cc(=O)[nH]1`: the kinetic solubility is above 27.5 µg/mL.
For `Cc1ccc(S(=O)(=O)NC(=O)Nc2cccc(C)n2)cc1` the value was above 45.8 µg/mL; for `O=C1CCC(=O)N1OCCOc1ccccc1`, above 35.3 µg/mL; for `CCOc1ccccc1Nc1ccc(C(=O)O)cc1[N+](=O)[O-]`, 40.8 µg/mL (≈ 135 µM).
For `Cc1ccc(C(=O)NC(=S)N(C)C2CCCCC2)cc1Br` the value was 1.1 µg/mL (≈ 2.98 µM).
`Cn1c(=O)c2c(nc(SCC(=O)N3CCOCC3)n2C)n(C)c1=O` had a solubility (kinetic) above 53 µg/mL.
`CCc1noc(C)c1C(=O)OCC(=O)c1ccccc1OC` gave a kinetic solubility of 4.6 µg/mL (≈ 15.2 µM).
For `Nc1ccccc1C(=O)NCC1(c2ccccc2)CCCC1` the value was above 44.2 µg/mL; for `Cc1ccc2nc(-c3ccc4c(c3)OCCO4)cn2c1`, 35.1 µg/mL (≈ 132 µM); for `CSc1sc(C(=O)NCC2CC2)c(-c2cccs2)c1C#N`, 8.6 µg/mL (≈ 25.7 µM).
For `O=C(O)CN(C1CCCCC1)S(=O)(=O)c1ccc(F)cc1` the value was above 47.3 µg/mL; for `O=C(NCc1ccc(F)cc1)N1CCc2ccccc2C1`, 39.3 µg/mL (≈ 138 µM).
`O=C(CCC(=O)N1CCCCCC1)Nc1ccc([N+](=O)[O-])cc1` gave a kinetic solubility of 9.2 µg/mL (≈ 28.8 µM).
For `Cc1c(Cl)cccc1NC(=O)CCCN1C(=O)c2cccnc2C1=O` the value was 39.5 µg/mL (≈ 110 µM).
For `CCC(=O)Nc1c(-c2ccc(C)cc2)c(=O)c2ccccc2n1C` the value was 20.8 µg/mL (≈ 64.9 µM); for `S=C(NCc1cccc(Cl)c1)NCc1ccco1`, 29.9 µg/mL (≈ 106 µM); for `O=S(=O)(c1ccc(F)cc1)N1CCCC1`, above 34.4 µg/mL.
Then `COc1ccc(CNC(=O)CSc2cccc3cccnc23)cc1`, with above 50.8 µg/mL.
Turning to `COc1ccc(-c2nc(-c3cccs3)no2)cc1`, the solubility (kinetic) was below 0.3 µg/mL.
Then `CC(Oc1ccc(C#N)cc1)C(=O)NC1CCCC1` (configuration not stated), with above 38.7 µg/mL; and `Cc1cc(C)c(S(=O)(=O)N2CCN(C3CC(=O)N(c4ccccc4Cl)C3=O)CC2)c(C)c1` (configuration not stated), with 16.7 µg/mL (≈ 35.1 µM); and `CC(C)c1ccc(NC(=O)CCC(=O)NCc2ccco2)cc1`, with 5.1 µg/mL (≈ 16.2 µM).
Then `COc1ccc(S(=O)(=O)n2cccc2)cc1OC`, with 11.8 µg/mL (≈ 44.1 µM); and `O=S(=O)(Nc1ccccc1N1CCCCC1)c1ccccc1`, with 4.4 µg/mL (≈ 13.9 µM).
For `CC1(C)Cc2c(C#N)c(SCC(=O)O)nc(N3CCOCC3)c2CO1` the value was 52.7 µg/mL (≈ 145 µM).
